Test results from patent US20110081315A1, “NOVEL MACROCYCLIC INHIBITORS OF HEPATITIS C VIRUS REPLICATION” (INTERMUNE, INC., priority 2009, published 2011).
Read-outs that look alike come from different tables or passages of the source.

Experiments:
[1] = tested on: hepatitis C replicon; test: hepatitis C replicon EC50 assay; format: cell-based; details: Hepatitis C virus
Summary of the method: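 NS3/NS4 protease complexes were formed and compound inhibitory concentrations (IC50) measured at ambient temperature (23° C.) in 50 mM Tris-HCl, pH 7.5, with 15% glycerol, 0.6 mM LDAO, 25 μM NS4A peptide and 10 mM DTT. Replicon EC50 values come from a standard HCV replicon cell assay.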

[2] = target: NS3/NS4 complexes (Hepatitis C virus genotype 1a, UniProt P27958); test: NS3/NS4 inhibition assay (IC50); format: biochemical; details: NS3/NS4 activity; 23° C., 25 μM NS4A peptide
Summary of the method: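 First, NS3 and NS4 are complexed; test compounds are then titrated against the complex at room temperature (23° C.) in Tris-HCl buffer, pH 7.5, supplemented with glycerol (15%), LDAO (0.6 mM), DTT (10 mM) and NS4A peptide (25 μM) to give IC50. Separately, replicon cells give EC50.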

[3] = hepatitis C replicon, read-out: EC50

Sequence of NS3/NS4 complexes (P27958 1027-1657, one chain of several): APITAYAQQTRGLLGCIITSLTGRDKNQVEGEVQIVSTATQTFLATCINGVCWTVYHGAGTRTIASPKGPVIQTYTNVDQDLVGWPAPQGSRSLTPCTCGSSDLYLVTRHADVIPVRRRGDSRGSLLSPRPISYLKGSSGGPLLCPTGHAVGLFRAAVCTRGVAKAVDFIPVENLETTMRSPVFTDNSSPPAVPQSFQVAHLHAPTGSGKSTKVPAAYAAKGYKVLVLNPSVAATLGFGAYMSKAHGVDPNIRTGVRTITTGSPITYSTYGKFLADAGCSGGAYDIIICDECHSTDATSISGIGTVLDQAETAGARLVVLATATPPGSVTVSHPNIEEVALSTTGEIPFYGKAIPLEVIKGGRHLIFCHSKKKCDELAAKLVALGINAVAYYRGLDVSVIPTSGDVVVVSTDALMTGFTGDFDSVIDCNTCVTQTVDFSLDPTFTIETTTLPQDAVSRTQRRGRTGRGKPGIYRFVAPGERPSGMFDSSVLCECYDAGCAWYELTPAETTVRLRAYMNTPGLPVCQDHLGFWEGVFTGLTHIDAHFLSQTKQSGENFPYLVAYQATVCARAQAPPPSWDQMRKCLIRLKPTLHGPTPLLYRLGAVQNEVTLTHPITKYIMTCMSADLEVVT

Structure (SMILES)	EC50 [1, 3] [µM]	IC50 [2] [µM]	EC50 [1] [µM]
CC1(S(=O)(=O)NC(=O)[C@@]23C[C@H]2/C=C\CCCCC[C@H](Nc2ccccc2)C(=O)N2C[C@H](n4ncc(-c5ccccc5)n4)C[C@H]2C(=O)N3)CC1 [Compound 1503]	> 0.1	< 0.01	–
COc1ccc2c(O[C@@H]3C[C@H]4C(=O)N[C@]5(C(=O)NS(=O)(=O)C6(C)CC6)C[C@H]5/C=C\CCCCC[C@H](Nc5cccc(F)c5)C(=O)N4C3)nc(-c3nc(C(C)C)cs3)cc2c1C [Compound 1005]	> 0.1	< 0.01	–
Cc1oc(-c2cccc3c2nc(O[C@@H]2C[C@H]4C(=O)N[C@]5(C(=O)NS(=O)(=O)N(C)C)C[C@H]5/C=C\CCCCC[C@H](NC(=O)OC(C)(C)C)C(=O)N4C2)n3C(C)C)nc1Cc1ccccc1 [Compound 1214]	< 0.01	< 0.01	–
CC(C)n1c(O[C@@H]2C[C@H]3C(=O)N[C@]4(C(=O)NS(=O)(=O)N(C)C)C[C@H]4/C=C\CCCCC[C@H](NC(=O)OC(C)(C)C)C(=O)N3C2)nc2c(-c3nc(C4CC4)cs3)cccc21 [Compound 1776]	< 0.01	< 0.01	–
CC(C)n1c(O[C@@H]2C[C@H]3C(=O)N[C@]4(C(=O)NS(=O)(=O)C5(C)CC5)C[C@H]4/C=C\CCCCC[C@H](Nc4ccccc4)C(=O)N3C2)nc2c(Cl)cccc21 [Compound 263]	0.01 to 0.1	< 0.01	–
Cc1sc(-c2cccc3c2nc(O[C@@H]2C[C@H]4C(=O)N[C@]5(C(=O)NS(=O)(=O)N(C)C)C[C@H]5/C=C\CCCCC[C@H](NC(=O)OC(C)(C)C)C(=O)N4C2)n3C(C)C)nc1C(C)(C)C [Compound 1207]	0.01 to 0.1	< 0.01	–
CC(C)n1c(O[C@@H]2C[C@H]3C(=O)N[C@]4(C(=O)NS(=O)(=O)N(C)C)C[C@H]4/C=C\CCCCC[C@H](NC(=O)OC(C)(C)C)C(=O)N3C2)nc2c(N)cccc21 [Compound 1419]	< 0.01	< 0.01	–
COc1ccc2c(O[C@@H]3C[C@H]4C(=O)N[C@]5(C(=O)NS(=O)(=O)C6(C)CC6)C[C@H]5/C=C\CCCCC[C@H](Nc5cccc(C(=O)N6CC(C)OC(C)C6)c5)C(=O)N4C3)cc(-c3nc(C(C)C)cs3)nc2c1C (stereo partly drawn) [Compound 106]	< 0.01	< 0.01	–
CCc1nc2ccccc2nc1O[C@@H]1C[C@H]2C(=O)N[C@]3(C(=O)NS(=O)(=O)C4(C)CC4)C[C@H]3/C=C\CCCCC[C@H](Nc3ccccc3)C(=O)N2C1 [Compound 312]	0.01 to 0.1	< 0.01	–
CC(C)c1coc(-c2cccc3c2nc(O[C@@H]2C[C@H]4C(=O)N[C@]5(C(=O)NS(=O)(=O)N(C)C)C[C@H]5/C=C\CCCCC[C@H](NC(=O)OC(C)(C)C)C(=O)N4C2)n3C(C)C)n1 [Compound 1435]	< 0.01	< 0.01	–
Cc1ccc(-c2csc(-c3cccc4c3nc(O[C@@H]3C[C@H]5C(=O)N[C@]6(C(=O)NS(=O)(=O)C7(C)CC7)C[C@H]6/C=C\CCCCC[C@H](NC(=O)OC(C)(C)C)C(=O)N5C3)n4C(C)C)n2)c(C)c1 [Compound 1717]	0.01 to 0.1	< 0.01	–
CCc1cccc2c1nc(O[C@@H]1C[C@H]3C(=O)N[C@]4(C(=O)NS(=O)(=O)N(C)C)C[C@H]4/C=C\CCCCC[C@H](NC(=O)OC(C)(C)C)C(=O)N3C1)n2C(C)C [Compound 266]	< 0.01	< 0.01	–
CC(C)n1c(O[C@@H]2C[C@H]3C(=O)N[C@]4(C(=O)NS(=O)(=O)N(C)C)C[C@H]4/C=C\CCCCC[C@H](NC(=O)OC(C)(C)C)C(=O)N3C2)nc2c(C(F)(F)F)cccc21 [Compound 291]	< 0.01	< 0.01	–
CC(C)n1c(O[C@@H]2C[C@H]3C(=O)N[C@]4(C(=O)NS(=O)(=O)N(C)C)C[C@H]4/C=C\CCCCC[C@H](NC(=O)OC(C)(C)C)C(=O)N3C2)nc2c(NC(N)=O)cccc21 [Compound 1425]	0.01 to 0.1	< 0.01	–
CC(C)n1c(O[C@@H]2C[C@H]3C(=O)N[C@]4(C(=O)NS(=O)(=O)C5CC5)C[C@H]4/C=C\CCCCC[C@H](NC(=O)OC(C)(C)C)C(=O)N3C2)nc2c(-c3nccs3)cccc21 [Compound 211]	< 0.01	< 0.01	–
COc1ccc2c(O[C@@H]3C[C@H]4C(=O)N[C@]5(C(=O)NS(=O)(=O)C6(C)CC6)C[C@H]5/C=C\CCCCC[C@H](Nc5cccc(C(=O)N6CCN(C)CC6)c5)C(=O)N4C3)cc(-c3nc(C(C)C)cs3)nc2c1C [Compound 104]	< 0.01	< 0.01	–
CC(C)n1c(O[C@@H]2C[C@H]3C(=O)N[C@]4(C(=O)NS(=O)(=O)C5(C)CC5)C[C@H]4/C=C\CCCCC[C@H](Nc4ccccc4)C(=O)N3C2)nc2c(-c3ccc(F)cc3)cccc21 [Compound 238]	0.01 to 0.1	< 0.01	–
CN(C)S(=O)(=O)NC(=O)[C@@]12C[C@H]1/C=C\CCCCC[C@H](NC(=O)OC(C)(C)C)C(=O)N1C[C@H](Oc3nc4ccccc4nc3-c3ccccc3)C[C@H]1C(=O)N2 [Compound 306]	0.01 to 0.1	< 0.01	–

Structure (SMILES)	EC50 [1, 3] [µM]	IC50 [2] [µM]	EC50 [1] [µM]
CCCn1c(O[C@@H]2C[C@H]3C(=O)N[C@]4(C(=O)NS(=O)(=O)N(C)C)C[C@H]4/C=C\CCCCC[C@H](NC(=O)OC(C)(C)C)C(=O)N3C2)nc2ccccc21 [Compound 1223]	< 0.01	< 0.01	–
CC(C)n1c(O[C@@H]2C[C@H]3C(=O)N[C@]4(C(=O)NS(=O)(=O)N(C)C)C[C@H]4/C=C\CCCCC[C@H](NC(=O)OC(C)(C)C)C(=O)N3C2)nc2c(-c3nc(-c4ccc(Cl)cc4)cs3)cccc21 [Compound 1751]	0.01 to 0.1	< 0.01	–
CCn1c(O[C@@H]2C[C@H]3C(=O)N[C@]4(C(=O)NS(=O)(=O)N(C)C)C[C@H]4/C=C\CCCCC[C@H](NC(=O)OC(C)(C)C)C(=O)N3C2)nc2c(-c3nc(-c4ccccc4)cs3)cccc21 [Compound 1431]	0.01 to 0.1	< 0.01	–
COc1ccc2c(O[C@@H]3C[C@H]4C(=O)N[C@]5(C(=O)NS(=O)(=O)C6(C)CC6)C[C@H]5/C=C\CCCCC[C@H](Nc5cccc(F)c5)C(=O)N4C3)nc(-c3nc(C(C)C)cs3)cc2c1 [Compound 1004]	0.01 to 0.1	< 0.01	–
CC(C)n1c(O[C@@H]2C[C@H]3C(=O)N[C@]4(C(=O)NS(=O)(=O)C5(C)CC5)C[C@H]4/C=C\CCCCC[C@H](NC(=O)OC(C)(C)C)C(=O)N3C2)nc2c(-c3nc(Cc4ccccc4F)cs3)cccc21 [Compound 1720]	< 0.01	< 0.01	–
COc1ccc(-c2nnn([C@@H]3C[C@H]4C(=O)N[C@]5(C(=O)NS(=O)(=O)C6(C)CC6)C[C@H]5/C=C\CCCCC[C@H](NC(=O)OC(C)(C)C)C(=O)N4C3)n2)cc1 [Compound 803]	0.01 to 0.1	< 0.01	–
CC1(S(=O)(=O)NC(=O)[C@@]23C[C@H]2/C=C\CCCCC[C@H](Nc2cccc(F)c2)C(=O)N2C[C@H](O)C[C@H]2C(=O)N3)CC1 [Compound 1003]	0.01 to 0.1	> 0.1	–
CC(C)n1c(O[C@@H]2C[C@H]3C(=O)N[C@]4(C(=O)NS(=O)(=O)C5(C)CC5)C[C@H]4/C=C\CCCCC[C@H](Nc4ccccc4)C(=O)N3C2)nc2c(-c3ccc(C#N)cc3)cccc21 [Compound 240]	0.01 to 0.1	< 0.01	–
Cc1nc2ccccc2nc1O[C@@H]1C[C@H]2C(=O)N[C@]3(C(=O)NS(=O)(=O)C4(C)CC4)C[C@H]3/C=C\CCCCC[C@H](Nc3ccccc3)C(=O)N2C1 [Compound 310]	0.01 to 0.1	< 0.01	–
COc1ccc2c(O[C@@H]3C[C@H]4C(=O)N[C@]5(C(=O)NS(=O)(=O)C6(C)CC6)C[C@H]5/C=C\CCCCC[C@H](Nc5cccc(C(=O)N6C[C@@H](C)O[C@@H](C)C6)c5)C(=O)N4C3)cc(-c3nc(C(C)C)cs3)nc2c1C [Compound 120]	< 0.01	< 0.01	–
Cc1ccccc1-c1csc(-c2cccc3c2nc(O[C@@H]2C[C@H]4C(=O)N[C@]5(C(=O)NS(=O)(=O)N(C)C)C[C@H]5/C=C\CCCCC[C@H](NC(=O)OC(C)(C)C)C(=O)N4C2)n3C(C)C)n1 [Compound 1748]	0.01 to 0.1	< 0.01	–
CC(C)n1c(O[C@@H]2C[C@H]3C(=O)N[C@]4(C(=O)NS(=O)(=O)N(C)C)C[C@H]4/C=C\CCCCC[C@H](NC(=O)OC(C)(C)C)C(=O)N3C2)nc2c(-c3nc(-c4ccccc4)cs3)cccc21 [Compound 233]	0.01 to 0.1	< 0.01	–
CC(C)NC(=O)c1cccc2c1nc(O[C@@H]1C[C@H]3C(=O)N[C@]4(C(=O)NS(=O)(=O)C5(C)CC5)C[C@H]4/C=C\CCCCC[C@H](Nc4ccccc4)C(=O)N3C1)n2C(C)C [Compound 272]	0.01 to 0.1	< 0.01	–
Cc1ccc(Cc2csc(-c3cccc4c3nc(O[C@@H]3C[C@H]5C(=O)N[C@]6(C(=O)NS(=O)(=O)C7(C)CC7)C[C@H]6/C=C\CCCCC[C@H](NC(=O)OC(C)(C)C)C(=O)N5C3)n4C(C)C)n2)cc1 [Compound 1719]	< 0.01	< 0.01	–
CC(C)n1c(O[C@@H]2C[C@H]3C(=O)N[C@]4(C(=O)NS(=O)(=O)N(C)C)C[C@H]4/C=C\CCCCC[C@H](NC(=O)OC(C)(C)C)C(=O)N3C2)nc2c(-c3csc(-c4ccccc4)n3)cccc21 [Compound 1740]	0.01 to 0.1	< 0.01	–
CC1(S(=O)(=O)NC(=O)[C@@]23C[C@H]2/C=C\CCCCC[C@H](Nc2ccccc2)C(=O)N2C[C@H](n4cc(-c5ccccc5)nn4)C[C@H]2C(=O)N3)CC1 [Compound 1504]	> 0.1	0.01 to 0.1	–
CC(C)n1c(O[C@@H]2C[C@H]3C(=O)N[C@]4(C(=O)NS(=O)(=O)C5(C)CC5)C[C@H]4/C=C\CCCCC[C@H](NC(=O)OC(C)(C)C)C(=O)N3C2)nc2c(-c3nc(C4CCC4)cs3)cccc21 [Compound 1771]	< 0.01	< 0.01	–
CC(C)n1c(O[C@@H]2C[C@H]3C(=O)N[C@]4(C(=O)NS(=O)(=O)N(C)C)C[C@H]4/C=C\CCCCC[C@H](NC(=O)OC(C)(C)C)C(=O)N3C2)nc2c(C(=O)Nc3ccccc3)cccc21 [Compound 282]	–	< 0.01	0.01 to 0.1
